Tests used:
Format in all cases: in vivo
[1] = test system: non-diabetic db/m mice; assay: Body weight, blood biochemistry and 24-hour urine oxidative stress in non-diabetic db/m mice; details: adiporon 30 mg/kg/day in diet for 4 weeks, mean ± SD
Method: A leptin receptor-defective type 2 diabetic animal model (db/db mice) and a normal control group (db/m mice) were used, and the experiment was performed by dividing into 4 groups as follows: non-diabetic control group (dm cont, n=8), non-diabetic adiporon treatment group (dm+AdipoR, n=8), diabetic control group (db cont, n=8) and diabetic adiporon treatment group (db+AdipoR, n=8). The control group was fed a normal diet, and the adiporon treatment group was fed a diet comprising adiporon (30 mg/kg/day) for 4 weeks from 16 weeks of age. During the experiment, body weight was measured every week, fasting blood glucose was measured using an Accu-Chek meter (Roche Diagnostics, St. Louis, MO) every 2 weeks after blood was collected from the tail vein, and glycated hemoglobin (HbA1c) was measured every 4 weeks using a […] automatic analyzer (Bayer healthcare LLC, IN) after blood was collected from the tail vein. The temperature and humidity of the breeding room were maintained at 20˜25° C. and 50˜60%, respectively, and the lights were turned on and off at 12-hour intervals. In both experiments, blood collected from each mouse was allowed to stand at room temperature for 30 minutes, and then centrifuged at 3000 rpm for 15 minutes to obtain serum. Blood levels of tartrate-resistant acid phosphatase (TRAP/ACP5) and osterocalcin concentration were measured by ELISA. In addition, 8-hydroxy-deoxyguanosine, a DNA damage marker caused by oxidative stress, and isoprostane, a marker of oxidative stress caused by lipid peroxidation caused by free fatty acids, and deoxypyridinoline (DPP), which indicates the function of osteoclasts, were measured in 24-hour urine concentrations by ELISA method.

[2] = test system: type 2 diabetic db/db mice; assay: Micro-CT of ilium (femur) and lumbar vertebra 5, db/db mice; details: adiporon 30 mg/kg/day, 4 weeks
Method: A leptin receptor-defective type 2 diabetic animal model (db/db mice) and a normal control group (db/m mice) were used, and the experiment was performed by dividing into 4 groups as follows: non-diabetic control group (dm cont, n=8), non-diabetic adiporon treatment group (dm+AdipoR, n=8), diabetic control group (db cont, n=8) and diabetic adiporon treatment group (db+AdipoR, n=8). The control group was fed a normal diet, and the adiporon treatment group was fed a diet comprising adiporon (30 mg/kg/day) for 4 weeks from 16 weeks of age. During the experiment, body weight was measured every week, fasting blood glucose was measured using an Accu-Chek meter (Roche Diagnostics, St. Louis, MO) every 2 weeks after blood was collected from the tail vein, and glycated hemoglobin (HbA1c) was measured every 4 weeks using a […] automatic analyzer (Bayer healthcare LLC, IN) after blood was collected from the tail vein. The temperature and humidity of the breeding room were maintained at 20˜25° C. and 50˜60%, respectively, and the lights were turned on and off at 12-hour intervals. The imaging was performed with micro-CT (Skyscan 1172, Belgium), the tube voltage was 60 kV, the tube current was 167 uA, 0.5 mm aluminum filtration was used, and the pixel size was 5.9 μm. For the shooting angle, a 2-dimensional image was reconstructed with Nrecon Reconstruction (Skyscan, Belgium). For 3D image analysis, CTAn (Skyscan, Belgium) was used, images were obtained by rotating 360°, and exposure time was 440 ms. A total of 7 types of indicators were used in this invention. BMD (bone mineral density, bone density) was measured based on phantoms of 0.25 g/cm^3 and 0.75 g/cm^3. BV/TV (Bone volume/Total volume, percent bone volume, %) is the ratio of voxels representing the solid region out of the total voxels present in the binarized and surfaced volume of interest, and it means the ratio occupied by bone trabeculae within the volume of interest, and i.s (Interception surfaces, mm2) means the generation of new bone. […] BS/BV (Bone surface/Bone volume, bone specific surface, mm^−1) is the ratio of the voxel surface area to the number of voxels in the binarized solid region within the volume of interest and it means the ratio of the surface area of the trabecular bone to the volume of the trabecular bone. The lower the value, the higher the bone strength. Tb.Th (trabecular thickness, mm) is obtained by averaging the diameters of these spheres, after placing a sphere comprising the corresponding voxel for each voxel representing the solid region within the volume of interest so that the size of the sphere is the largest that includes only the solid region and it means the average thickness of the trabecular bone. […] In the same way, using Tb.Sp (trabecular separation, mm), the average length between trabecular lines and Tb.N (trabecular number, mm^−1) were used to obtain the average number of trabecular lines.

[3] = test system: ovariectomized C57BL/6 mice; assay: Growth plate staining (trichrome, Safranin O) of ilium, ovariectomized mice; details: 6 weeks
Method: 7 weeks after ovariectomization or sham surgery of 7-week-old C57BL/6 mice, normal feed group (adiporon non-administered group; control group) administration group, 2.5 mg/kg day or 25 mg/kg day, respectively Feed comprising adiporon was consumed for 6 weeks from 14 weeks of age. Body weight was measured every week during the experiment period, and the experiment was conducted after 6 weeks of administration. […] Thereafter, after neutralization with 0.5M Phosphate buffer (pH 7.4), washing, and embedding in paraffin. Tissue sections were cut to a thickness of 5 μm, and hematoxylin and eosin staining (H&E staining), trichrome staining, and Safranin O staining were performed. In bone tissue, double immunofluorescence staining method was performed using anti-adiponectin receptor 1/2 antibody, anti-perilipin-1 antibody, anti-RANKL antibody, anti-TNF-α antibody, and ApopTag Fluorescein In Situ Apoptosis Detection Kit (Chemicon International, Temecula, CA) and expression was observed using a confocal microscope.

For `Cl.O=C(COc1ccc(C(=O)c2ccccc2)cc1)NC1CCN(Cc2ccccc2)CC1` [adiporon], the Blood glucose [1] was 136 ± 8 mg/dL, the HbA1c [1] was 3.8 ± 0.2% and the “Serum NEFA” value [1] was 0.67 ± 0.23 mEq/I. For the same compound, the “Serum TC” value [1] was 2.5 ± 0.4 mmol/L, the “Serum TG” value [1] was 1.4 ± 0.2 mmol/L and the Serum adiponectin [1] was 11214 ± 1214 ng/mL. For the same compound, the “Urinary 8-OHDG” value [1] was 36.5 ± 14.5 ng/24 h, the Urinary isoprostane [1] was 4.3 ± 2.2 ng/24 h and the “Bone mineral density index (micro-CT)” value ([2]; ilium) was “significantly increased and improved”. The “Bone surface index (micro-CT)” value ([2]; ilium) was “significantly increased and improved”, the “Bone volume index (micro-CT)” value ([2]; ilium) was “significantly increased and improved” and the “Trabecular number index (micro-CT)” value ([2]; ilium) was “significantly increased and improved”. The “Trabecular thickness index (micro-CT)” value ([2]; ilium) was “significantly increased and improved”, the “Trabecular thickness (micro-CT)” value ([2]; vertebrae (lumbar vertebrae 5)) was “increased and improved” and the “Decreased thickness of the iliac growth plate” value ([3]; adiporon 2.5 mg/kg day) was “increased”. For the same compound, the “Decreased thickness of the iliac growth plate” value ([3]; adiporon 25 mg/kg day) was “increased”.
